The values below come from patent US8742141B2, “Inhibition and treatment of prostate cancer metastasis” (Northwestern University, priority 2008, dated 2014).

Data set [1] has as its system Estrogen receptor (ER) positive human MCF-7 breast cancer cells. Kind of data set: Expression of estrogen responsive genes (TFF1, PGR, CPSD) in MCF-7 cells. It is filed as cell-based. The following applies: 0.1-50 μM, 24 hours, hormone-free conditions. The method, then: (§1) The genes were: TFF1 (trefoil factor 1; also known as pS2), PGR (progesterone receptor), and CPSD (cathepsin D). Gene expression was measured by isolating RNA, and performing real time quantitative reverse transcription/polymerase chain reaction (qRT/PCR), using exon spanning primers (purchased from Applied Biosystems). The expression of GAPDH was also measured, and used to normalize the expression of ER responsive genes. Data below are the mean±SD of a single experiment, performed in duplicate. […] Additionally, the ability of compound 46 to activate an ER promoter-luciferase reporter vector construct after transient transfection of the human ER positive breast cancer cell line, MCF-7, was evaluated (FIG. 31). […] “No associated control cells” were transfected with an identical vector construct that lacked the estrogen response element, i.e., noERE.

The test system of data set [2] is PC3-M, PC3, 1542CPTX, 1532CPTX, 1532NPTX, and 1542NPTX cells. Put plainly: Cell invasion assay, invasion time extended to 16 hours. Format: cell-based, human. The following applies: invasion assay time 16 hours. The method, then: (§2) Assays were conducted using methods as described in Craft et al. (2008, Mol. Pharmocol., 73(1):235-242; herein incorporated by reference in its entirety).
Expanded studies were performed on compound 46. Cell invasion assays conducted using the procedure of Example 2 utilized control, genistein-treated, and compound 46-treated PC3-M, PC3, 1542CPTX, 1532CPTX, 1532NPTX, and 1542NPTX cells (FIG. 17, FIG. 28). This allowed assay conditions to be adjusted so as to optimize assessment of differences between these three treatment conditions. In particular, the invasion assay time was extended from 14 to 16 hours.

Data set [3] relates to PC3, PC3-M, 1532CPTX, 1542CPTX, 1532NPTX, and 1542NPTX. Put plainly: Growth inhibition MTT assay in different cell lines. It is filed as cell-based, human. The following applies: range of concentrations. As to the method:
Growth inhibition assays were performed with different cell lines using the procedure of Example 2. Specifically, cell lines (PC3, PC3-M, 1532CPTX, 1542CPTX, 1532NPTX, and 1542NPTX) were treated with a range of concentrations of compound 46 (FIG. 18, FIG. 29). Cell viability was determined by MTT assay as recited in Kyle et al., Mol. Pharmacol, 51(2):193-200 (1997); herein incorporated by reference in its entirety. Data are the mean±SEM of a single experiment, performed in triplicate.

A short description of data set [4]: Stability after radiation and autoclaving. It is filed as physicochemical. As to the method: Successful scale-up of synthesis of compound 46 was conducted according to the methods of Examples 7, 11, and the Detailed Description, yielding 10 g of material that is >98% pure (by HPLC).
The test system of data set [5] is ER promoter-luciferase reporter vector construct. Kind of data set: ER promoter-luciferase reporter assay in MCF-7 cells. Format: cell-based, human. The following applies: 10 μM. As to the method:
as §1

Data set [6] can be described thus: Short-term animal toxicity study, oral gavage. The following applies: 0.15, 1.5, 15, or 150 mg/kg body weight/day, 5 days. It is filed as in vivo. The method, then:
Six week old athymic male mice were dosed by oral gavage with 0.15, 1.5, 15, or 150 mg KBU2046/kg body weight/day, or vehicle control, daily for 5 days. There were 3 mice per dose level.

In data set [7] the test system is PC3-M human prostate cancer cells. Kind of data set: 3-day growth inhibition MTT assay. It is filed as cell-based. Particulars: range of concentrations. As to the method:
PC3-M human prostate cancer cells were treated with different concentrations of the indicated compound, and then MTT reduction as an indicator of cell viability was measured according to the method of Example 9.
The anti-metastatic activity of compounds 21-26 was tested using the procedure of Example 2. Specifically, PC3-M cells were treated with 10 μM of compound (for invasion, FIG. 11) or a range of concentrations (for growth inhibition, FIG. 12). For invasion, values are the mean±SD number of invading cells, as a percent of untreated controls, from N=3 separate assays run at different times (each assay was in replicates of N=4). Cell viability was determined by MTT assay as recited in Kyle et al., Mol. Pharmacol, 51(2):193-200 (1997); herein incorporated by reference in its entirety. […]
The anti-metastatic activity of compounds 31-38 was tested using the procedure of Example 2. […] Cell viability was determined by MTT assay as recited in Kyle et al., Mol. Pharmacol, 51(2):193-200 (1997); herein incorporated by reference in its entirety. […]
The anti-metastatic activity of compounds 41-48 was tested using the procedure of Example 2. […] Cell viability was determined by MTT assay as recited in Kyle et al., Mol. Pharmacol, 51(2):193-200 (1997); herein incorporated by reference in its entirety. […]

The test system of a further data set is PC3-M cells. Kind of data set: Cell invasion assay, compounds 21-48. Particulars: 10 μM of compound. Format: cell-based, human. As to the method:
as §2
(§3) The anti-metastatic activity of compounds 21-26 was tested using the procedure of Example 2. Specifically, PC3-M cells were treated with 10 μM of compound (for invasion, FIG. 11) or a range of concentrations (for growth inhibition, FIG. 12). For invasion, values are the mean±SD number of invading cells, as a percent of untreated controls, from N=3 separate assays run at different times (each assay was in replicates of N=4). Cell viability was determined by MTT assay as recited in Kyle et al., Mol. Pharmacol, 51(2):193-200 (1997); herein incorporated by reference in its entirety. Values are the mean±SD of N=2 separate assays run at different times (N=3 for each assay), and are the percent of untreated controls.
as §3, with “31-38” for “21-26”, “13)” for “11)”, “14).” for “12).”
as §3, with “41-48” for “21-26”, “15)” for “11)”, “16).” for “12).”

In another data set the test system is PC3-M or PC3 cells. Put plainly: Cell invasion assay, compounds of Example 7. Format: cell-based, human. Particulars: 10 μM of compound. As to the method: as §2
The anti-metastatic activity of the compounds of Example 7 was tested using the procedure of Example 2. Specifically, PC3-M or PC3 cells were treated with 10 μM of compound (for invasion, FIG. 9) or a range of concentrations (for growth inhibition, FIG. 10). For invasion, values are the mean±SD number of invading cells, as a percent of untreated controls, from N=3 separate assays run at different times (each assay was in replicates of N=4). Cell viability was determined by MTT assay as recited in Kyle et al., Mol. Pharmacol, 51(2):193-200 (1997); herein incorporated in its entirety. Values are the mean±SD of N=2 separate assays run at different times (N=3 for each assay), and are the percent of untreated controls.

Entries after “also recorded” stand apart in the source; their conditions may differ.

As for `O=C1c2ccccc2OCC1c1ccc(F)cc1` (centres unmarked) [Compound 46, 4′-fluoroisoflavanone], the “estrogenic activity (expression of estrogen responsive genes)” value in data set [1] was “no estrogenic activity”. Moreover, the “anti-invasion efficacy compared to genistein” value in [2] is recorded as “greater efficacy than genistein; also recorded: greater anti-invasion efficacy compared to genistein”. In addition, in data set [3], the “toxicity in growth inhibition assay (MTT cell viability)” value was “less toxic than genistein, and in fact shows no toxicity; also recorded: no cell toxicity”. The compound stability result is recorded as “stability was documented” in [4] (after exposure to 40 kGy of radiation); “stability was documented” in data set [4] (after exposure to high temperatures and pressures (autoclaving)). The luciferase activity entry in data set [5] is given as “no effect”. In addition, in data set [6], the toxicity result was “no evidence of toxicity”.

For the compound `O=C1c2c(O)cc(O)cc2OCC1c1ccc(O)cc1` (centres unmarked) [Compound 22, 5,7,4′-trihydroxyisoflavanone], the “cell growth inhibition (MTT)” value in data set [7] was “little-to-no effect upon cell growth inhibition”. Moreover, the anti-invasion efficacy result with PC3-M cells is “retain anti-invasion efficacy”.

In the case of `O=c1oc2cc(O)cc(O)c2cc1-c1ccc(O)cc1` [Compound 17], the “inhibition of cell invasion (anti-metastatic activity)” value (“inhibition of cell invasion” for short) in the data set on PC3-M or PC3 cells is on record as “did not show any significant inhibition of cell invasion”.

Regarding `O=c1c(-c2cccc(Cl)c2)coc2ccccc12` [Compound 38, 3′-chloroisoflavone], the “cell growth inhibition (MTT)” value in data set [7] is listed as “growth inhibitory effects”. Further, the anti-invasion efficacy result in the data set with PC3-M cells is listed as “anti-invasive”.

Take `O=c1c(-c2ccccc2)coc2ccccc12` [Compound 1]: the “inhibition of cell invasion” value in the data set on PC3-M or PC3 cells is reported as “did not show any significant inhibition of cell invasion”.

`COc1ccc(-c2cc3c(OC)cc(OC)cc3oc2=O)cc1` [Compound 23]: the anti-invasion efficacy result with PC3-M cells is reported as “loss of activity”.

For the compound `CC(=O)Oc1ccc(-c2cc3c(OC(C)=O)cc(OC(C)=O)cc3oc2=O)cc1` [Compound 24], the anti-invasion efficacy result in the data set with PC3-M cells was “loss of activity”.

Take `O=c1c(-c2ccc(O)cc2)coc2cc(O)cc(O)c12` [Compound 8]: in the data set on PC3-M or PC3 cells, the “inhibition of cell invasion” value was “did not show any significant inhibition of cell invasion”.

Regarding `O=c1oc2cc(O)cc(O)c2cc1-c1ccc(O)cc1` [Compound 25], the anti-invasion efficacy entry with PC3-M cells was “loss of activity”.
